Reference: patent publication US20160235778A1, “COMPOSITIONS CONTAINING PUFA, URIDINE AND CHOLINE AND METHODS OF USE THEREOF” (MASSACHUSETTS INSTITUTE OF TECHNOLOGY, priority 2014, published 2016)

Assays:
[1] = test system: brain phospholipids; experiment: Brain phospholipid levels in pups of treated pregnant and nursing mothers; assay type: in vivo; conditions: rat pups
Procedure: (§1) In another study, pregnant rats were allowed to consume ad libitum, for 10 days before parturition and 20 days while nursing, either a choline-containing control diet or this diet supplemented with uridine as UMP; half of each group also received DHA or its diluent daily, by gavage. Pups were then sacrificed and brain slices were examined to determine numbers of hippocampal dendritic spines.
Pregnant and nursing rats were administered DHA and/or uridine as described in Example 9. At 20 days post-birth, rats were sacrificed and brain samples were obtained and assayed for phospholipids. Administration of DHA alone increased brain PC, PI, PE, and sphingomyelin (SM) per cell (DNA) by 36, 166, 38, and 78%, respectively. UMP markedly amplified the effects of DHA to 66, 210, 68, and 99% of control, respectively (Table 8). These increases were greater than those observed in adult animals. Similar results were obtained when normalizing to protein (Table 9). Thus, administration of DHA and/or uridine to pregnant and nursing mothers is able to increase phospholipid levels in the offspring.

[2] = test system: Rat hippocampal cells; experiment: 14C-choline incorporation into PC in cultured hippocampal neurons; assay type: cell-based; conditions: DHA+choline, 14C-choline 2 h, FIG. 10
Procedure: Rat hippocampal cells were cultured for 3 weeks in Neutrobasal plus B27 medium, to reach full maturation. On the day of the experiment, cells were incubated with DMEM+choline, with or without added DHA. ^14C-choline was added, cells were incubated for an additional 2 h, and newly-formed ^14C-labeled PC was extracted and measured as described in Example 1.

[3] = test system: brain CDP-choline; experiment: Brain CDP-choline and CDP-ethanolamine levels (HPLC); assay type: in vivo; conditions: gerbil
Procedure: FIG. 5A-B. Effects of DHA on brain CDP-choline levels (FIG. 5A) and CDP-ethanolamine levels (FIG. 5B). Groups of 8 gerbils received either a control or a UMP-containing diet, and, by gavage, DHA (in a vehicle of 5% gum Arabic solution) or 5% gum Arabic solution alone for 28 days. On the 29th day brains were harvested and assayed for CDP-choline. Data are presented as means±SEM. Statistical analysis was performed using one- or two-way ANOVA followed by Tukey test. a: P<0.05 when compared with the values for control diet plus vehicle group; b: P<0.05 when compared with values for UMP diet plus vehicle group.
Aliquots (2 ml) of the upper (aqueous) phase were dried under a vacuum, reconstituted, and injected into an HPLC. The dried samples were reconstituted in 100-200 μl water and were analyzed by HPLC on an anion exchange column (Alltech Hypersil APS-2, […], 250×4.6 mm). CDP-choline was eluted with a linear gradient of buffers A (H3PO4, 1.75 mM, pH 2.9) and B (NaH2PO2, 500 mM, pH 4.5) from 0 to 100% B over period of 30 min. With this system, CDP-choline was resolved from closely co-eluting substances such as UMP in an isocratic system over a period of 40 min. The retention time for CDP-choline was 9.5 min. The column was washed with buffer B at the end of each experiment and every several days to remove retained nucleotides. Individual nucleotide peaks were detected by UV absorption at 280 nm and were identified by comparison with the positions of authentic standards, as well as by the addition of nucleotide standards to samples.

[4] = test system: hippocampal dendritic spines; experiment: Hippocampal dendritic spine numbers in pups of treated pregnant and nursing mothers; assay type: in vivo; conditions: rat pups, mothers treated 10 days before parturition and 20 days while nursing
Text: as §1

[5] = test system: brain phospholipids; experiment: Brain phospholipid levels in gerbils given UMP diet and/or PUFA by gavage; assay type: in vivo, gerbil; set-up: PC / PE / PS / PI: unit not given here
Procedure: Control standard diet (Table 4) consisted of Teklad Global 16% protein rodent diet (Harlan Teklad, Madison, Wis.), which contained 0.1% choline chloride (CC), corresponding to a daily dose of 50 mg/kg/day. UMP was provided as 0.5% UMP·2Na^+ weight/weight, added to the control diet, also prepared by Harlan Teklad, corresponding to 240 mg/kg/day UMP. DHA was administered as 300 mg/kg/day in 200 microliter (mcL)/day 5% Arabic Gum solution, while groups not receiving DHA were administered vehicle (5% Arabic Gum) alone. DHA was provided by Nu-Chek Prep (Elysian, MN) and UMP by Numico (Wagenigen, NL).
Gerbils were anesthetized with ketamine and xylazine (80 and 10 mg/kg bwt, i.p.) and sacrificed by immersing the head into liquid nitrogen for 2 min, followed by decapitation. Brains were immediately and quickly (30 seconds) removed using a bone rongeur and stored at −80° C.
Frozen brain hemispheres were weighed and homogenized in 100 volumes of ice-cold deionized water using a tissue degrader (Polytron PT 10-35, Kinematica AG, Switzerland), then analyzed as described in Example 1.
Protein in whole brain homogenate sample was measured for using bicinchoninic acid reagent (Perkin Elmer, Norwalk, Conn., USA). DNA was measured by measuring 460 nm emission of samples on a fluorometer in the presence of bisbenzimidizole, a fluorescent dye known as Hoechst H 33258 (American Hoechst Corporation), which has an excitation maximum at 356 nm and an emission maximum of 458 when bound to DNA.
Male gerbils weighing 80-100 g were divided into 4 groups of 8 gerbils and administered the supplements depicted in Table 1:
Adult gerbils were administered control standard diet (Table 4) with our without 0.5% UMP and/or 300 mg/kg/day DHA, EPA, or AA. Groups not receiving DHA were administered vehicle (5% Arabic Gum) alone.

[6] = postnatal day 20, normalized to DNA
[7] = postnatal day 20, normalized to protein
[8] = gerbil brain, 3 weeks, 0.5% UMP and/or 300 mg/kg/day PUFA, Table 6
[9] = gerbil brain, 4 weeks, normalized to DNA levels, mean +/- SEM
[10] = gerbil brain, 4 weeks, normalized to protein levels, mean +/- SEM
[11] = gerbil, Table 5A study, vs control

With CCC=CCC=CCC=CCC=CCC=CCC=CCCC(=O)O [DHA, 4,7,10,13,16,19-docosahexaenoic acid] the “PC, percent increase over control” value [1, 6] was 36%, the “PE, percent increase over control” value [1, 6] was 38% and the “PI, percent increase over control” value [1, 6] was 166%. The “SM, percent increase over control” value [1, 6] was 78%, the “Total Phospholipids, percent increase over control” value [1, 6] was 30% and the “PC, percent increase over control” value [1, 7] was 23%. For the same compound, the “PE, percent increase over control” value [1, 7] was 24%, the “PI, percent increase over control” value [1, 7] was 141% and the “SM, percent increase over control” value [1, 7] was 59%. For the same compound, the “Total Phospholipids, percent increase over control” value [1, 7] was 16%, the “increase in synthesis of phospholipids relative to choline alone (control)” value [2] was “more than 2 fold” and the “reduction of brain CDP-choline levels in UMP-treated gerbils” value ([3]; 28 days, compared with UMP-containing diet and DHA's vehicle) was 21%. For the same compound, the “reduction of brain CDP-choline levels” value ([3]; 28 days, compared with control diet and DHA's vehicle) was 26%, the “brain CDP-choline levels, in words” value ([3]; FIG. 5A) was “decreased” and the “brain CDP-ethanolamine levels, in words” value ([3]; FIG. 5B) was “decreased”. For the same compound, the “Increase over control (%)” value [4] was 32%, the Number of spines [4] was 70 and the PC [5, 8] was 133 ± 6. The PE [5, 8] was 77 ± 2, the PI [5, 8] was 18 ± 2 and the PS [5, 8] was 34 ± 3. The SM [5, 8] was 24 ± 2, the “Total PL” value [5, 8] was 344 ± 16 and the PC [5, 9] was 366 ± 13. It also gave a PE [5, 9] of 196 ± 18, a PI [5, 9] of 84 ± 13 and a PS [5, 9] of 98 ± 7. The SM [5, 9] was 126 ± 8, the “Total PL” value [5, 9] was 909 ± 77 and the PC [5, 10] was 185 ± 12. It also gave a PE [5, 10] of 78 ± 5, a PI [5, 10] of 32 ± 2 and a PS [5, 10] of 39 ± 3. The SM [5, 10] was 56 ± 3, the “Total PL” value [5, 10] was 392 ± 20 and the “increase in levels of total phospholipids” value ([5]; gerbil brain, 4 weeks, vs control group) was 12%. The PtdCho ([5]; gerbil brain, Table 5 part A) was 185 ± 12 nmol/mg prt, the PtdEtn ([5]; gerbil brain, Table 5 part A) was 78 ± 5 nmol/mg prt and the PtdIns ([5]; gerbil brain, Table 5 part A) was 32 ± 2 nmol/mg prt. For the same compound, the PtdSer ([5]; gerbil brain, Table 5 part A) was 39 ± 3 nmol/mg prt, the SM ([5]; gerbil brain, Table 5 part A) was 56 ± 3 nmol/mg prt and the “Total PL” value ([5]; gerbil brain, Table 5 part A) was 392 ± 20 nmol/mg prt. The “brain phospholipid levels, in words” value ([5]; gerbil, 3 weeks) was “increased phospholipid levels”, the “increase in brain level of PC” value [5, 11] was 22% and the “increase in brain level of PE” value [5, 11] was 20%. The “increase in brain level of PI” value [5, 11] was 52% and the “increase in brain level of sphingomyelin” value [5, 11] was 24%.
